Assay results reported in patent US6310091A, “Fungicidal saponin, CAY-1, and isolation thereof from Capsium species fruit” (The United States of America as represented by the …, priority 2000, dated 2001).
“And” between values parts separate entries of the source, which are not always exact repeats. Equal entries are not always repeated. Where two headings read alike, the source gives them in different places.

How the values were obtained:
Format in all cases: cell-based
[1] = tested on: A549 lung carcinoma cells; assay: Mammalian cytotoxicity, A549 lung carcinoma cells (ATP content); conditions: at concentrations effective against the fungi and yeast
Procedure: 2. A549 lung carcinoma cells. Toxicity of CAY-1 was tested by exposing the cells to CAY-1 for 24, 48, and 72 hrs. Antimycin A was used as a positive control. Viability was assessed by measurement of the ATP content in duplicate wells with luciferin-luciferase monitoring reagent [Cushion et al., Antimicrob. Agents Chemother., 1997, 41:379-384].

[2] = tested on: Enterobacter agglomerans ATCC 27996; assay: Bacterial lethality; conditions: 0.5-10 μM; 37° C., 24 hrs
Procedure: (§1) 5. Bacteria. CAY-1 lethality to Escherichia coli ATCC 8739, Enterobacter agglomerans ATCC 27996, Bacillus subtilis ATCC 6051 and Staphylococcus aureus ATCC 12600 was determined by methods described earlier (De Lucca et al., Mol. cell Biochem., 1995, 151:141-148). Briefly, 24 hr bacterial cultures were washed and resuspended in 0.1 M PBS, pH 7.2, amended with 0.15 mM MgCl2 and 0.5 mM CaCl2 and adjusted to 80% transmittance (approximately 10^8 cells/ml) at 590 nm. Bacterial suspensions were mixed with PBS and CAY-1 (final concentrations: 0, 0.5, 1, 2, 4, 8, 10 μM) in sterile 96-well plates (Nunc, Roskilde, Denmark) and incubated (37° C., 24 hrs). Bioassays were performed twice for each bacteria (n=8).

[3] = tested on: Staphylococcus aureus ATCC 12600; assay: Bacterial lethality; conditions: 0.5-10 μM; 37° C., 24 hrs
Procedure: as §1

[4] = tested on: Bacillus subtilis ATCC 6051; assay: Bacterial lethality; conditions: 0.5-10 μM; 37° C., 24 hrs
Procedure: as §1

[5] = tested on: Escherichia coli ATCC 8739; assay: Bacterial lethality; conditions: 0.5-10 μM; 37° C., 24 hrs
Procedure: as §1

Aspergillus fumigatus = assay: Fungicidal bioassay on nongerminated and germinating conidia of A. fumigatus; conditions: for activity at 2 µM / activity at 3 µM / activity at 4 µM / activity at 5 µM / activity at 7.5 µM / activity at 10 µM / activity at 0.5 µM / activity at 1 µM / activity at 1.5 µM / activity at 2.5 µM: read-out: Percent of Mean Control
Procedure: 1. Filamentous fungi. Filamentous fungi used in bioassays included Aspergillus flavus, A. fumigatus, A. niger, A. parasiticus and Fusarium oxysporum. The fungicidal properties of CAY-1 for the nongerminated and germinating conidia of these fungi were determined separately as described by De Lucca et al. [Med. Mycol., 36:291-298 (1998)] and De Lucca et al. [Antimicrob. Agents Chemother. 43:371-373 (1999)]. […] Two separate experiments were conducted in each medium (n=8 per medium).
A suspension of the aforementioned fungi were prepared separately in the appropriate medium. Conidia (10^4 conidia/ml) were used immediately for the nongerminated conidial assays while conidia (10^5 conidia/ml) were incubated for 7.5 hours at 30° C. to obtain germinating conidia. Serial dilutions of CAY-1 were prepared in the appropriate medium (totaling 225 μl) to which was added 25 μl of the conidial suspensions. The control consisted of 225 μl of medium and 25 μl of the conidial suspension. After mixing, the samples were incubated for 30 min (30° C.). Samples were then spread on potato dextrose agar plates which were incubated at 30° C. for 24 hours. Colonies were then enumerated.
Statistical analyses. ANOVA analyses on ranks for nonparametric data were performed for the bioassays described in this example.

[6] = Aspergillus fumigatus, 0.5 h, germinating, RPMI-1640
[7] = Aspergillus fumigatus, 0.5 h, nongerminated, RPMI-1640
[8] = Aspergillus fumigatus, 0.5 h, read-out: LD95

CC1CCC2(OC1)OC1CC3C4CCC5CC(OC6OC(CO)C(OC7OC(CO)C(O)C(OC8OC(CO)C(O)C(OC9OC(CO)C(O)C(O)C9O)C8O)C7OC7OC(CO)C(O)C(O)C7O)C(O)C6O)C(O)CC5(C)C4CCC3(C)C1C2C (stereo not drawn) [CAY-1]
lethality to mammalian cells [1]: not lethal
lethality to bacteria [2]: not effective
lethality to bacteria [3]: not effective
lethality to bacteria [4]: not effective
lethality to bacteria [5]: not effective
activity at 2 µM (Aspergillus fumigatus; Aspergillus fumigatus, 0.5 h, germinating, 1% PDB, 2.0 μM): 96.1%
activity at 3 µM (Aspergillus fumigatus; Aspergillus fumigatus, 0.5 h, germinating, 1% PDB, 3.0 μM): 49.9%
activity at 4 µM (Aspergillus fumigatus; Aspergillus fumigatus, 0.5 h, germinating, 1% PDB, 4.0 μM): 14.4%
activity at 5 µM (Aspergillus fumigatus; Aspergillus fumigatus, 0.5 h, germinating, 1% PDB, 5.0 μM): 6.1%
activity at 7.5 µM (Aspergillus fumigatus; Aspergillus fumigatus, 0.5 h, germinating, 1% PDB, 7.5 μM): 2.8%
activity at 10 µM (Aspergillus fumigatus; Aspergillus fumigatus, 0.5 h, germinating, 1% PDB, 10.0 μM): 0.2%
activity at 0.5 µM (Aspergillus fumigatus; Aspergillus fumigatus, 0.5 h, germinating, RPMI-1640, 0.5 μM): 92.4%
activity at 1 µM (Aspergillus fumigatus; [6]): 105%
activity at 1.5 µM (Aspergillus fumigatus; [6]): 117%
activity at 2 µM (Aspergillus fumigatus; Aspergillus fumigatus, 0.5 h, germinating, RPMI-1640, 2.0 μM): 118%
activity at 2.5 µM (Aspergillus fumigatus; [6]): 114%
activity at 3 µM (Aspergillus fumigatus; Aspergillus fumigatus, 0.5 h, germinating, RPMI-1640, 3.0 μM): 40.7%
activity at 4 µM (Aspergillus fumigatus; Aspergillus fumigatus, 0.5 h, germinating, RPMI-1640, 4.0 μM): 5.1%
activity at 2 µM (Aspergillus fumigatus; Aspergillus fumigatus, 0.5 h, nongerminated, 1% PDB, 2.0 μM): 93.9%
activity at 3 µM (Aspergillus fumigatus; Aspergillus fumigatus, 0.5 h, nongerminated, 1% PDB, 3.0 μM): 80.4%
activity at 4 µM (Aspergillus fumigatus; Aspergillus fumigatus, 0.5 h, nongerminated, 1% PDB, 4.0 μM): 88.5%
activity at 5 µM (Aspergillus fumigatus; Aspergillus fumigatus, 0.5 h, nongerminated, 1% PDB, 5.0 μM): 86.7%
activity at 7.5 µM (Aspergillus fumigatus; Aspergillus fumigatus, 0.5 h, nongerminated, 1% PDB, 7.5 μM): 96.6%
activity at 10 µM (Aspergillus fumigatus; Aspergillus fumigatus, 0.5 h, nongerminated, 1% PDB, 10.0 μM): 101%
activity at 0.5 µM (Aspergillus fumigatus; Aspergillus fumigatus, 0.5 h, nongerminated, RPMI-1640, 0.5 μM): 117%
activity at 1 µM (Aspergillus fumigatus; [7]): 132%
activity at 1.5 µM (Aspergillus fumigatus; [7]): 97.4%
activity at 2 µM (Aspergillus fumigatus; Aspergillus fumigatus, 0.5 h, nongerminated, RPMI-1640, 2.0 μM): 109%
activity at 2.5 µM (Aspergillus fumigatus; [7]): 96.5%
activity at 3 µM (Aspergillus fumigatus; Aspergillus fumigatus, 0.5 h, nongerminated, RPMI-1640, 3.0 μM): 103%
LD95 (concentration killing 95% of conidia) (Aspergillus fumigatus; [8]): 4 µM
LD95 (concentration lethal to 95% of conidia) (Aspergillus fumigatus; [8]): 5 µg/mL
minimal effective concentration (Aspergillus fumigatus; Aspergillus fumigatus, 0.5 h, read-out: concentration achieving significant lethality): 3 µM and 3.7 µg/mL
minimal effective concentration (Aspergillus fumigatus; Aspergillus fumigatus, 0.5 h, read-out: concentration required for statistically significant viability reduction): 12.4 µg/mL
minimal effective concentration (Aspergillus fumigatus; Aspergillus fumigatus, 0.5 h, germinating conidia, RPMI-1640, p=0.0002, read-out: concentration required for statistically significant viability reduction): 10 µM
Mean No. of Colonies (Aspergillus fumigatus; germinating, 1% PDB, 2.0 μM): 44.1
Mean No. of Colonies (Aspergillus fumigatus; germinating, 1% PDB, 3.0 μM): 22.9
Mean No. of Colonies (Aspergillus fumigatus; germinating, 1% PDB, 4.0 μM): 6.6
Mean No. of Colonies (Aspergillus fumigatus; germinating, 1% PDB, 5.0 μM): 2.8
Mean No. of Colonies (Aspergillus fumigatus; germinating, 1% PDB, 7.5 μM): 1.3
Mean No. of Colonies (Aspergillus fumigatus; germinating, 1% PDB, 10.0 μM): 0.1
Mean No. of Colonies (Aspergillus fumigatus; germinating, RPMI-1640, 0.5 μM): 10.9
